Where two headings read alike, the source gives them in different places.
Experiments:
[1] = system: HIV-1 IIIB isolate; assay: HIV-1 p24 antigen capture ELISA, acutely infected 174XCEM cells; assay type: cell-based; details: for anti-HIV-1 activity compared with other betulinol derivatives: 1 μg/ml, p24 OD, FIG. 1
From the text: The assay methods described herein are known in the art, and are described in detail, for example, in Crombie et al., J. Exp. Med. 187:25-35 (1998), which is hereby incorporated by reference in its entirety.
Cultures were maintained in culture medium (RPMI-1640+10% fetal bovine serum (“FBS”)) for 4 days, the culture supernatants were then collected, lysed with Triton®-X 100 surfactant, and HIV-1 gag (p24) antigen activity assessed by a standard technique, the Antigen Capture ELISA (enzyme-linked immunosorbent assay) (Roche-NEN).
Data are presented in optical density (“OD”) units, which are linear with ng/ml of p24 Ag from 0.15 to 1.5 OD, and can be converted to pg/ml of HIV-1 antigen using a standard curve.

[2] = system: 174XCEM cells; assay: Cell viability by trypan blue dye exclusion; details: for effect on total cell number or cell viability: trypan blue dye exclusion at four days and seven days
Method: Human T-B hybridoma cell line 174XCEM was exposed to a low multiplicity of infection (“MOI”) (MOI=1.0) of stock HIV-1 IIIB isolate for 2 hours at 37° C., washed ×3 with phosphate buffered saline (“PBS”), then plated at 250,000 cells/well in the presence of various agents, shown in Table 2. Dimethyl sulfoxide (“DMSO”) buffer was used as a “no virus” control. A commercially available synthetic peptide, thrombospondin peptide (“TSP”), known as having HIV-1 inhibitory activity, was used as an “inhibitory activity” control. Two HIV isolates were used, a patient isolate (“child HIV”), and the standard CXCR4 co-receptor utilizing isolate IIIB.
The cell samples were assessed by trypan blue dye exclusion at four days and seven days.

[3] = system: another HIV-1 isolate; assay: Effect on 174XCEM cells chronically infected with another HIV-1 isolate; assay type: cell-based
Method: Agents were also evaluated for an effect on 174XCEM cells chronically infected with another HIV-1 isolate.

[4] = system: carcinoma cell line CO-115 of the large intestine; details: CO-115 cells; cited from earlier work
[5] = Hashimoto et al. 1997; cited from earlier work
[6] = varying doses up to 2 μg/ml, FIG. 3-5
[7] = chronically infected 174XCEM cells, single dose 1 μg/ml
[8] = 174XCEM cells, HIV-1 IIIB, agents 1 μg/ml, p24 at 4 days, FIG. 2

Compound: C=C(C)[C@@H]1CC[C@]2(CO)CC[C@]3(C)[C@H](CC[C@@H]4[C@@]5(C)CC[C@H](OC(C)=O)C(C)(C)[C@@H]5CC[C@]43C)[C@@H]12 [3-acetoxy betulin]
- anti-HIV-1 activity compared with other betulinol derivatives [1]: superior
- effect on total cell number or cell viability [2]: no effect

Compound: C=C(C)[C@@H]1CC[C@]2(COC(C)=O)CC[C@]3(C)[C@H](CC[C@@H]4[C@@]5(C)CC[C@H](O)C(C)(C)[C@@H]5CC[C@]43C)[C@@H]12 [28-acetoxy betulin]
- anti-HIV-1 activity compared with other betulinol derivatives [1]: superior
- dose-related anti-HIV effect [1, 6]: comparable anti-HIV-1 activity
- effect on total cell number or cell viability [2]: no effect

Compound: C=C(C)[C@@H]1CC[C@]2(COC(C)=O)CC[C@]3(C)[C@H](CC[C@@H]4[C@@]5(C)CC[C@H](OC(C)=O)C(C)(C)[C@@H]5CC[C@]43C)[C@@H]12 [betulin diacetate]
- inhibition in chronically infected cells [3]: 20%
- dose-related anti-HIV effect [1]: Progressive increases in anti-HIV effect
- inhibition (anti-HIV-1 effect) [1]: 57%
- cell toxicity ([2]; doses of 0.5, 1.5, and 2 μg/ml): without cell toxicity

Compound: C=C(C)[C@@H]1CC[C@]2(C(=O)O)CC[C@]3(C)[C@H](CC[C@@H]4[C@@]5(C)CC[C@H](O)C(C)(C)[C@@H]5CC[C@]43C)[C@@H]12 [betulinic acid]
- LD 50 [4]: 0.375 mg/mL

Compound: C=C(C)C1CCC2(CO)CC[C@]3(C)[C@H](CC[C@@H]4[C@@]5(C)CCC(O)C(C)(C)[C@@H]5CC[C@]43C)C12 (stereo partly drawn) [betulinol, lup-20(29)-ene-3β, 28-diol]
- inhibition in chronically infected cells [3, 7]: minimal effect
- inhibition (anti-HIV-1 effect) [1, 8]: no effect
- dose-related anti-HIV effect [1, 6]: increasing anti-HIV effect

Compound: C=C(C)C1CCC2(C=O)CC[C@]3(C)[C@H](CC[C@@H]4[C@@]5(C)CCC(=O)C(C)(C)[C@@H]5CC[C@]43C)C12 (stereo partly shown) [betulone aldehyde]
- inhibition in chronically infected cells [3, 7]: minimal effect
- inhibition (anti-HIV-1 effect) [1, 8]: 37%
- dose-related anti-HIV effect [1, 6]: Progressive increases in anti-HIV effect

Compound: C=C(C)[C@@H]1CC[C@]2(C(=O)O)CC[C@]3(C)[C@H](CC[C@@H]4[C@@]5(C)CCC(=O)C(C)(C)[C@@H]5CC[C@]43C)[C@@H]12 [betulonic acid]
- cytotoxicity, interfering with the proliferation of cells [5]: cytotoxic

Compound: betulin dimethyl ether
- anti-HIV-1 activity compared with other betulinol derivatives [1]: superior
- effect on total cell number or cell viability [2]: no effect

— US20060019934A1, “Anti-HIV-1 activity of betulinol derivatives” (priority 2004, published 2006)
